Reference: patent publication US20030166629A1, “Cyclic quaternary ammonium compounds” (priority 1999, published 2003)

Test system: citric acid-induced cough responses
Experiment: Antitussive activity against citric acid aerosol-induced cough in conscious guinea-pigs
Format: in vivo, guinea-pig
Conditions: aerosol pre-treatment at 5.0 mg/ml for 5 minutes immediately before citric acid (1M) exposure, vehicle 25% ethanol, 15 minute observation period
Excerpt: The following method is one of the general methods available to determine the antitussive activity of the compounds of the present invention.
Male albino Dunkin-Hartley strain guinea-pigs (weight 300-400 g) can be obtained from various commercial suppliers.
The method is a modification of that described by Adcock J. J., Schneider C. and Smith T. W., “Effects of Morphine and a Novel Opioid Pentapeptide BW443C, on Cough, Nociception and Ventilation in the Unanaesthetized Guinea-pig”, Br. J. Pharmacol., 93, 93-100 (1988). […]
Cylinder air is introduced into the exposure chamber at a flow rate of 1 liter/min, maintained by a needle valve and monitored by a rotameter. […]
Cough responses are induced by exposure to an aerosol of citric acid (1M) for 10 minutes. Animals are continuously monitored by trained observer, and the number of coughs are counted during a 15 minute period from commencement of the citric acid aerosol administration. […]
The three types of response are differentiated primarily by sound and visual observation. […] Each cough is marked on the Grass polygraph paper trace, and from these record numbers, frequency and time of onset of coughs are determined. […]
Quantities of drugs are weighed out and dissolved in a vehicle. […] The sequence of pre-treatment administration is determined according to a 4×4 Latin Square design. […]

## CCCCC[N+]1(C)CCCCC1C(=O)Nc1c(C)cccc1C.[I-] (stereo not shown) [N-methyl-bupivacaine iodide, 2-{[(2,6-Dimethylphenyl)amino]carbonyl}-1-methyl-1-pentylpiperidinium iodide]
  inhibition of cough responses compared with vehicle pre-treated guinea pigs: > 90%
